This is an account of results in BindingDB's records for doi:10.7270/Q2JM286J (Burnham Center For Chemical Genomics, 2012).

Bounds are passed on as bounds.

This assay addresses Prothrombin (Bos taurus, UniProt P00735). Put plainly: thrombin protease inhibitors – biochemical, fluorescence polarization, uHTS hits, dose response (AID 602369). A general note: Fluorescence polarisation rises when a labelled molecule tumbles more slowly, as on binding a larger partner.
As usually defined, the IC50 is the concentration that inhibits the measured activity by half. Higher therefore signals weaker potency in that assay. Compound `O=C1N=C(Nc2ccc(Cl)cc2Cl)SC1=Cc1c[nH]c2ccccc12` returned an IC50 of 38.3 µM.

On to `COC1=CC([N+](=O)[O-])=CC(/C=N/NC(=O)c2cc(-c3ccccc3)nc3ccccc23)C1=O` (stereo not given), for which the IC50 turned out to be 75.1 µM.

The compound `COC1=CC(=Cc2c(C)[nH]n(-c3cccc(Br)c3)c2=O)C=C(OC)C1=O` returned an IC50 of 39 µM.

`CN(CCO)c1ccc(CN=Nc2ccc([N+](=O)[O-])cc2S(=O)(=O)Nc2ccccc2C(=O)O)cc1`: 36.4 µM corresponded to half-maximal inhibition (IC50).

Take `O=c1c(Cl)c(N=NCc2ccc(Br)cc2)cnn1-c1ccccc1`: the IC50 was more than 100 µM.

With `CCOC(=O)C1C(=O)C(=Cc2ccc(-c3ccccc3C(=O)O)o2)SC1=Nc1ccc(OC)cc1` (stereo not given), the IC50 worked out at 13.1 µM.

Take `CC[n+]1c(CC=Nc2ccccc2)oc2ccc(OC)cc21`: the midpoint of inhibition, the IC50, lay at 55.6 µM.

`O=C1C=CC([N+](=O)[O-])=CC1C=NN=C1NS(=O)(=O)c2ccccc21` (stereo not given) displayed an IC50 of 36.8 µM.

For `CCN(CC)CCOC(=O)c1ccc(N=CC(C#N)c2nc(-c3ccc4c(c3)OCO4)cs2)cc1` (stereo not given) [2-(diethylamino)ethyl 4-[[(Z)-2-[4-(1,3-benzodioxol-5-yl)-1,3-thiazol-2-yl]-2-cyano-ethenyl]amino]benzoate], the IC50 was found to be 56.1 µM.

On to `Oc1csc(=S)n1N=Cc1ccc(Cl)s1` [3-[(5-chlorothiophen-2-yl)methylideneamino]-2-sulfanylidene-1,3-thiazolidin-4-one], for which the midpoint of inhibition, the IC50, lay at 27.1 µM.

`CC(=O)C1C(=O)OC(=CC=Cc2ccccc2)C1=O` (stereo not given) [3-acetyl-5-cinnamylidene-4-hydroxy-2-furanone] returned an IC50 of 50.4 µM.

`C=c1[nH]n(-c2nnc(C)c(=O)[nH]2)c(=O)c1=Cc1ccc(N(CC)CC)cc1` [3-{4-[1-(4-Diethylamino-phenyl)-meth-(Z)-ylidene]-3-methyl-5-oxo-4,5-dihydro-pyrazol-1-yl}-6-methyl-4H -[1,2,4]triazin-5-one] came in with an IC50 of 49.9 µM. The IC50 values of the last two compounds are within 1.5-fold of each other.

`NS(=O)(=O)c1ccc(N=CCC(=O)c2ccc3ccccc3c2)cc1` [4-(3-Naphthalen-2-yl-3-oxo-propenylamino)-benzenesulfonamide] yielded an IC50 of 56.5 µM.

The compound `CSc1nsc(CC=Nc2ccc(C(=O)O)cc2)c1C#N` [4-({2-[4-cyano-3-(methylsulfanyl)-5-isothiazolyl]vinyl}amino)benzenecarboxylic acid] registered an IC50 of 27.6 µM.

Regarding `CC1(C)CC(=O)C(=CNCC2CCN(C(=O)Cc3ccccc3)CC2)C(=O)C1` [5,5-dimethyl-2-[[[1-(2-phenylacetyl)piperidin-4-yl]methylamino]methylidene]cyclohexane-1,3-dione], the IC50 is more than 100 µM.

Consider `CC(c1sc(S)nc1O)c1sc(S)nc1O` [5-[1-(4-oxidanylidene-2-sulfanylidene-1,3-thiazolidin-5-yl)ethyl]-2-sulfanylidene-1,3-thiazolidin-4-one], for which the IC50 is 52.4 µM.

On to `CC1=NC(=O)NC(c2ccc(N3CCOCC3)cc2)C1C(=O)c1ccccc1` (stereo not given) [5-benzoyl-6-methyl-4-[4-(4-morpholinyl)phenyl]-3,4-dihydro-1H-pyrimidin-2-one], for which the 50% inhibitory concentration (IC50) stood at 15.5 µM.

As to `COC1=CC([N+](=O)[O-])=CC(/C=N/NC(=O)c2cncc(Br)c2)C1=O` (stereo not given) [5-bromo-N'-[(E)-(5-methoxy-3-nitro-6-oxo-1-cyclohexa-2,4-dienylidene)methyl]-3-pyridinecarbohydrazide], the IC50 amounted to 39.1 µM. This IC50 lies about 2.5-fold higher than the previous one.

`Cc1[nH]n(-c2ccccc2)c(=O)c1C=C1NC(=S)NC1=O` [5-methyl-4-[(Z)-(5-oxo-2-sulfanylideneimidazolidin-4-ylidene)methyl]-2-phenyl-4H-pyrazol-3-one] came in with an IC50 of 52.8 µM.

As for `O=C1c2ccccc2SC1/C=N/c1cc([N+](=O)[O-])ccc1O` (stereo not given) [(2Z)-2-[[(5-nitro-2-oxidanyl-phenyl)amino]methylidene]-1-benzothiophen-3-one], half-maximal inhibition (IC50) was put at 2.57 µM.

Compound `Cc1[nH]c2ccccc2c1/C=C1\N=C(c2ccccc2)OC1=O` [(4Z)-4-[(2-methyl-1H-indol-3-yl)methylidene]-2-phenyl-5-oxazolone] returned an IC50 of 7.22 µM.

On to `C=CCN1C(=O)C(/C=N/c2cccc([N+](=O)[O-])c2)C(=O)N(CCCC)C1=O` (stereo not given) [MLS000543529], for which half-maximal inhibition (IC50) was put at 42.7 µM.

With `O=[N+]([O-])c1ccc(N=NCc2c[nH]c3ccccc23)cc1` [MLS000573812], the midpoint of inhibition, the IC50, lay at 2.05 µM.

The compound `O=[N+]([O-])c1ccc(N=NCc2ccc[nH]2)cc1` [MLS000595102] had an IC50 of 9.84 µM.

Take `COc1cc2c3c(c1)C(C)=CC(C)(C)N3C(=O)C2=O` [MLS000688351]: the IC50 was found to be 11.4 µM.

For the compound `C=C(C=C(C)c1sc(S)nc1O)c1sc(S)nc1O` [MLS000723803], the IC50 stood at 87.5 µM.

The compound `C=c1[nH]c2ccc(C)cc2c1=Cc1c(N)n2oc(C)cc2nc1=O` [MLS000730959] showed an IC50 of 32.1 µM.

Take `O=C(N/N=C/C1C=C([N+](=O)[O-])C=CC1=O)c1cc(-c2ccccc2)nc2ccccc12` (stereo not given) [N'-[(E)-(3-nitro-6-oxo-1-cyclohexa-2,4-dienylidene)methyl]-2-phenyl-4-quinolinecarbohydrazide]: the IC50 was 10.7 µM.

`COc1cc(C=c2[nH]c3n(c2=O)CCCCC=3)ccc1O` [SMR000149996] registered an IC50 of 29.7 µM. Against the preceding compound, the IC50 is about 2.8-fold higher.

`O=[N+]([O-])c1ccc(N=NCc2cccn2-c2ccccc2)nc1` [SMR000161089]: the IC50 turned out to be 29.5 µM.

`COc1cc(C=CC(=O)C2C(=O)NC(=O)N(CCc3ccccc3)C2=O)ccc1O` (stereo not given) [SMR000221203] returned an IC50 of 40.6 µM.

For the compound `Cc1cc(=O)[nH]c(N=NCc2c(O)n(-c3ccccc3)c(=O)c3ccccc23)n1` [SMR000221270], the IC50 is 37.2 µM. This IC50 and that of the compound before are within 1.5-fold of each other.

Turning to `O=C(N/N=C/C1C=C(Cl)C=C([N+](=O)[O-])C1=O)c1ccccc1NS(=O)(=O)c1cccs1` (stereo not given) [SMR000364876], the midpoint of inhibition, the IC50, lay at 85.5 µM.

Compound `CCN(CC)CCOC(=O)c1ccc(N=CC(C#N)c2nc(-c3ccc(OC)c(OC)c3)cs2)cc1` (stereo not given) [SMR000434079] had an IC50 of 28.7 µM.

As to `CCCCCCCCCCCC1N=C(N)N=C(CCCO)C1C(=O)OC` (stereo not given) [SMR001565729], the IC50 was 42.3 µM.
